The record followed here is patent US20130324412A1, “N-ALKOXYAMIDES OF 6-(SUBSTITUTED PHENYL)-4-AMINOPICOLINATES AND 2-(SUBSTITUTED PHENYL)-6-AMINO-4-PYRIMIDINECARBOXYLATES AND THEIR USE AS SELECTIVE HERBICIDES FOR CROPS” (DOW AGROSCIENCES LLC, priority 2009, published 2013).

Holding throughout (format): in vivo
Assay [1] deals with velvetleaf (Abutilon theophrasti). The assay can be described thus: General postemergence herbicidal activity, velvetleaf. The note with it: post-emergence, 336 h, 140 g ai/ha, postemergence, after 14 d, 0 = no injury, 100 = complete kill, read-out: ABUTH % Visual Injury. The method in brief: (§1)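 Greenhouse plants at first to second true leaf stage sprayed overhead at 187 L/ha in acetone/DMSO with crop oil concentrate and surfactant, at a high rate plus ½× to 1/16× serial dilutions. Injury rated visually after 14 d against solvent-blank controls, 0 (none) to 100% (complete kill).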

For assay [2], the system named is sicklepod (Casia obtusifolia). The assay can be described thus: Postemergence herbicidal activity in corn, sicklepod. The note with it: corn test, visual rating after 21 d, probit analysis, dose to kill or control 80 percent. On the procedure:
(§2) Seeds of corn and the desired weed species were planted in Sun Gro MetroMix 360 planting mixture, which typically has a pH of 6.0 to 6.8 and an organic matter content of about 30 percent, in plastic pots with a surface area of 95 cm^2. When required to ensure good germination and healthy plants, a fungicide treatment and/or other chemical or physical treatment was applied. The plants were grown for 7-21 d in a greenhouse with an approximate 15-h photoperiod which was maintained at about 23-29° C. during the day and 22-28° C. during the night. Nutrients and water were added on a regular basis and supplemental lighting was provided with overhead metal halide 1000-Watt lamps as necessary. The corn plants were utilized for testing when they reached the second true leaf stage. The weed species were utilized at the first or second true leaf stage.
(§3) A weighed amount, determined by the highest rate to be tested, of each test compound was dissolved in 4 mL of a 97:3 v/v mixture of acetone and DMSO to obtain concentrated stock solutions. […] The concentrated stock solutions obtained were diluted with 20 mL of an aqueous mixture containing acetone, water, isopropyl alcohol, DMSO, Atplus 411F crop oil concentrate, and Triton X-155 surfactant in a 48.5:39:10:1.5:1.0:0.02 v/v ratio to obtain spray solutions containing the highest application rates. […]
(§4) The treated plants and control plants were placed in a greenhouse as described above and watered by sub-irrigation to prevent wash-off of the test compounds. After 21 d, the condition of the test plants as compared with that of the untreated plants was determined visually and scored on a scale of 0 to 100 percent where 0 corresponds to no injury and 100 corresponds to complete kill. […]

In assay [3] the test system is corn (Zea mays). Description: General postemergence herbicidal activity, corn. The note with it: post-emergence, 336 h, 140 g ai/ha, postemergence, after 14 d, 0 = no injury, 100 = complete kill, read-out: ZEAMX % Visual Injury. The method in brief:
as §1

Assay [4] concerns pigweed, redroot (Amaranthus retroflexus). Description: Postemergence herbicidal activity in corn, redroot pigweed. The following applies: corn test, visual rating after 21 d, probit analysis, dose to kill or control 80 percent. On the procedure:
as §2, §3, §4

Assay [5] has as its system wild buckwheat (Polygonum convululus). The assay can be described thus: Postemergence herbicidal activity in corn, wild buckwheat. The note with it: corn test, visual rating after 21 d, probit analysis, dose to kill or control 80 percent. The method, then: as §2, §3, §4
Assay [6] shares this test system. Description: General postemergence herbicidal activity, wild buckwheat. The note with it: post-emergence, 336 h, 140 g ai/ha, postemergence, after 14 d, 0 = no injury, 100 = complete kill, read-out: POLCO % Visual Injury. In outline:
as §1

In assay [7] the test system is lambsquarters (Chenopodium album). The assay can be described thus: Postemergence herbicidal activity in corn, lambsquarters. The note with it: corn test, visual rating after 21 d, probit analysis, dose to kill or control 80 percent. The method, then:
as §2, §3, §4

Assay [8] has as its system corn (Zea mays). The assay can be described thus: Postemergence herbicidal activity in corn, crop. The note with it: visual rating after 21 d, probit analysis, dose to kill or control 20 percent. The method, then:
as §2, §3, §4

Assay [9] deals with lambsquarters (Chenopodium album). Description: General postemergence herbicidal activity, lambsquarters. The note with it: post-emergence, 336 h, 140 g ai/ha, postemergence, after 14 d, 0 = no injury, 100 = complete kill, read-out: CHEAL % Visual Injury. In outline:
as §1

Each structure is given as a SMILES string. Some results are limits rather than exact numbers.

Regarding `C=CCONC(=O)c1nc(-c2ccc(Cl)c(OC)c2F)cc(N)c1Cl` [Compound 3, N-(2-Propenyloxy)-4-amino-3-chloro-6-(4-chloro-2-fluoro-3-methoxyphenyl)picolinamide], the pest or weed control at 140 g/ha in [1], in assay [6] and in assay [9] was 100% each time. For the same compound, the “CASOB GR80” value in [2] is 5 g ai/ha. Moreover, the plant injury at 140 g/ha in the assay on corn (Zea mays) [3] amounted to 0%. Besides, the “AMARE GR80” value in assay [4] amounted to 5 g ai/ha. Further, the “POLCO GR80” value in assay [5] is <4 g ai/ha. The “CHEAL GR80” value in [7] is <4 g ai/ha. Further, the “ZEAMX GR20” value in the assay on corn (Zea mays) [8] was >35 g ai/ha.
